Measurements: patent US20230250096A1, “SUBSTITUTED PHENYL-1H-PYRROLO[2,3-c] PYRIDINE DERIVATIVES” (Janssen Pharmaceutica NV, priority 2021, published 2023)

Tests used:
[1] = target: T1, menin/MLL (terbium chelate-labeled menin, FITC-MBM1 peptide) (Homo sapiens, UniProt O00255, T541A); test: Menin/MLL homogenous time-resolved fluorescence (HTRF) assay; format: binding; conditions: 30 min incubation
T1 construct: Menin (a.a 1-610-6xhis tag, 2.3 mg/mL in 20 mM Hepes)
T1 sequence (O00255 with tags, fused parts or gaps T541A): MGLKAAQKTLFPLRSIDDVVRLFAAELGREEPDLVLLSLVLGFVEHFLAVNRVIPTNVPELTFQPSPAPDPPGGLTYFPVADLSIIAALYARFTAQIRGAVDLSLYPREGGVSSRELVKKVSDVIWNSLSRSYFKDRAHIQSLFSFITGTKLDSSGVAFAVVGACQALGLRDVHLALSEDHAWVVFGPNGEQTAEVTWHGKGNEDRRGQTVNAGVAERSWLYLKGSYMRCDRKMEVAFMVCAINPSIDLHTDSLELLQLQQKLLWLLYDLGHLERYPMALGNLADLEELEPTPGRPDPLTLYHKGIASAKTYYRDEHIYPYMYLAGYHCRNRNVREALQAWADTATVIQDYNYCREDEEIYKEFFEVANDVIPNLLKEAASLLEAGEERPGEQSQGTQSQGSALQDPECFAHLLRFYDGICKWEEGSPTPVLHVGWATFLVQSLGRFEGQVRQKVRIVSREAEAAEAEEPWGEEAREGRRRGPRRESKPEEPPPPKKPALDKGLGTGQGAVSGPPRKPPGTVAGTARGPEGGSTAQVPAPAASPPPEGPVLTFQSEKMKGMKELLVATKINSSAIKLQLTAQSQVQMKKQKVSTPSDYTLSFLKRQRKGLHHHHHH
Procedure: 1) Menin/MLL Homogenous Time-Resolved Fluorescence (HTRF) Assay
To an untreated, white 384-well microtiter plate was added 40 nL 200× test compound in DMSO and 4 μL 2× terbium chelate-labeled menin (vide infra for preparation) in assay buffer (40 mM Tris HCl, pH 7.5, 50 mM NaCl. 1 mM DTT (dithiothreitol) and 0.05% Pluronic F-127). After incubation of test compound and terbium chelate-labeled menin for 30 min at ambient temperature, 4 μL 2×FITC-MBM1 peptide (FITC-β-alanine-[…]-NH2) (“FITC” means fluorescein isothiocyanate) in assay buffer was added, the microtiter plate centrifuged at 1000 rpm for 1 min and the assay mixtures incubated for 15 min at ambient temperature. The relative amount of menin FITC-MBM1 complex present in an assay mixture is determined by measuring the homogenous time-resolved fluorescence (HTRF) of the terbium/FITC donor/acceptor fluorphore pair using an EnVision microplate reader (ex. 337 nm/terbium em. 490 nm/FITC em. 520 nm) at ambient temperature. The degree of fluorescence resonance energy transfer (the HTRF value) is expressed as the ratio of the fluorescence emission intensities of the FITC and terbium fluorophores (F^em520 nm/F^em490 nm). The final concentrations of reagents in the binding assay are […] terbium chelate-labeled menin, 75 nM FITC-MBM1 peptide and 0.5% DMSO in assay buffer. Dose-response titrations of test compounds are conducted using an 11 point, four-fold serial dilution scheme, starting typically at 10 μM.
Compound potencies were determined by first calculating % inhibition at each compound concentration according to equation 1:
% inhibition=((HC−LC)−(HTRF^compound−LC))/(HC−LC))*100 (Eqn 1)
Where LC and HC are the HTRF values of the assay in the presence or absence of a saturating concentration of a compound that competes with FITC-MBM1 for binding to menin, and HTRF^compound is the measured HTRF value in the presence of the test compound. HC and LC HTRF values represent an average of at least 10 replicates per plate.
% inhibition=Bottom+(Top−Bottom)/(1+10^((log/C50−log[cmpd])*h)) (Eqn 2)
Where Bottom and Top are the lower and upper asymptotes of the dose-response curve, respectively, IC50 is the concentration of compound that yields 50% inhibition of signal and h is the Hill coefficient.
Preparation of Terbium cryptate labeling of Menin: Menin (a.a 1-610-6xhis tag, 2.3 mg/mL in 20 mM Hepes (2-[4-(2-Hydroxyethyl)-1-piperazinyl]ethane sulfonic acid), 80 mM NaCl, 5 mM DTT (Dithiothreitol), pH 7.5) was labeled with terbium cryptate as follows. 200 μg of Menin was buffer exchanged into 1×Hepes buffer. 6.67 μM Menin was incubated with 8-fold molar excess NHS (N-hydroxysuccinimide)-terbium cryptate for 40 minutes at room temperature. Half of the labeled protein was purified away from free label by running the reaction over a NAP5 column with elution buffer (0.1M Hepes, pH 7+0.1% BSA (bovine serum albumin)). The other half was eluted with 0.1 M phosphate buffered saline (PBS), pH7. 400 μl of eluent was collected for each, aliquoted and frozen at −80° C. The final concentration of terbium-labeled Menin protein was 115 μg/mL in Hepes buffer and 85 μg/mL in PBS buffer, respectively.

MEIS1 mRNA expression = MEIS1 mRNA expression assay (Quantigene Singleplex) in MOLM14 cells; format: cell-based, human; conditions: Homo sapiens, MOLM-14, 48 h, 48 hours incubation
Procedure: 2b) MEIS1 mRNA Expression Assay
MEIS1 mRNA expression upon treatment of compound was examined by Quantigene Singleplex assay (Thermo Fisher Scientific). This technology allows for direct quantification of mRNA targets using probes hybridizing to defined target sequences of interest and the signal is detected using a Multimode plate reader Envision (PerkinElmer). The MOLM14 cell line was used for this experiment. Cells were plated in 96-well plates at 3,750 cells/well in the presence of increasing concentrations of compounds. After incubation of 48 hours with compounds, cells were lysed in lysis buffer and incubated for 45 minutes at 55° C. Cell lysates were mixed with human MEIS specific capture probe or human RPL28 (Ribosomal Protein L28) specific probe as a normalization control, as well as blocking probes. Cell lysates were then transferred to the custom assay hybridization plate (Thermo Fisher Scientific) and incubated for 18 to 22 hours at 55° C. Subsequently, plates were washed to remove unbound materials followed by sequential addition of preamplifiers, amplifiers, and label probe. Signals (═gene counts) were measured with a Multimode plate reader Envision. IC50S were calculated by dose-response modelling using appropriate software. For all non-housekeeper genes response equal counts corrected for background and relative expression. For each sample, each test gene signal (background subtracted) was divided by the normalization gene signal (RPL28: background subtracted). Fold changes were calculated by dividing the normalized values for the treated samples by the normalized values for the DMSO treated sample. Fold changes of each target gene were used for the calculation of IC50S.

Row | IC50 [1] [nM] | IC50 (MEIS1 mRNA expression) [nM] | SMILES
1 | 0.021 | 17 | Cc1cncc2c1c(C[C@@H]1CCN(C(CCCN3CCC(S(C)(=O)=O)CC3)C(C)C)C1)cn2-c1ccc(F)cc1C(=O)N(C)C(C)C (mixture of isomers) [Compound 10]
2 | 0.034 | 6 | Cc1cncc2c1c(C[C@H]1CCN(C(CCCN3CCC(S(C)(=O)=O)CC3)C(C)C)C1)cn2-c1ccc(F)cc1C(=O)N(C)C(C)C (mixture of isomers) [Compound 11]
3 | 0.018 | 5 | CC(=O)N1C[C@@H]2CN(CCCC(C(C)C)N3CC[C@@H](Cc4cn(-c5ccc(F)cc5C(=O)N(C)C(C)C)c5cncc(C)c45)C3)C[C@H]2C1 (mixture of isomers) [Compound 12]
4 | 0.124 | 6 | CC(=O)N1C[C@@H]2CN(CCCC(C(C)C)N3CC[C@H](Cc4cn(-c5ccc(F)cc5C(=O)N(C)C(C)C)c5cncc(C)c45)C3)C[C@H]2C1 (mixture of isomers) [Compound 13]
5 | 0.054 | < 3.6 | COCCNCCCC(C(C)C)N1CC[C@@H](Cc2cn(-c3ccc(F)cc3C(=O)N(C)C(C)C)c3cncc(C)c23)C1 (mixture of isomers) [Compound 14]
6 | 0.04 | < 0.8 | COCCNCCCC(C(C)C)N1CC[C@H](Cc2cn(-c3ccc(F)cc3C(=O)N(C)C(C)C)c3cncc(C)c23)C1 (mixture of isomers) [Compound 15]
7 | 0.051 | 70 | CCC(CCCN1C[C@H]2CN(C(C)=O)C[C@@H]2C1)N1CC[C@@H](Cc2cn(-c3ccc(F)cc3C(=O)N(C)C(C)C)c3cncc(C)c23)C1 (mixture of isomers) [Compound 16]
8 | 0.031 | 48 | CCC(CCCN1C[C@H]2CN(C(C)=O)C[C@@H]2C1)N1CC[C@H](Cc2cn(-c3ccc(F)cc3C(=O)N(C)C(C)C)c3cncc(C)c23)C1 (mixture of isomers) [Compound 17]
9 | ~0.19 | < 1.7 | CC(=O)N1C[C@@H]2CN([C@H]3C[C@@H](C(C(C)C)N4CC[C@@H](Cc5cn(-c6ccc(F)cc6C(=O)N(C)C(C)C)c6cncc(C)c56)C4)C3)C[C@H]2C1 (mixture of isomers) [Compound 20]
10 | 0.07 | 7 | CCC([C@H]1C[C@@H](N2C[C@H]3CN(C(C)=O)C[C@@H]3C2)C1)N1CC[C@H](Cc2cn(-c3ccc(F)cc3C(=O)N(C)C(C)C)c3cncc(C)c23)C1 (mixture of isomers) [Compound 23]
11 | 0.087 | 91 | CCC([C@H]1C[C@@H](N2CCN(C(C)=O)CC2)C1)N1CC[C@H](Cc2cn(-c3ccc(F)cc3C(=O)N(C)C(C)C)c3cncc(C)c23)C1 (mixture of isomers) [Compound 25]
12 | 0.055 | 107 | CC(=O)N1C[C@@H]2CN([C@H]3C[C@@H](C(C)N4CC[C@@H](Cc5cn(-c6ccc(F)cc6C(=O)N(C)C(C)C)c6cncc(C)c56)C4)C3)C[C@H]2C1 (mixture of isomers) [Compound 28]
13 | 1.3 | – | Cc1cncc2c1c(CC1CN([C@@H]3CCN4C(=O)CCC4C3)C1)cn2-c1ccc(F)cc1C(=O)N(C)C(C)C (single isomer, unassigned) [Compound 309a]
14 | 0.042 | – | CC(=O)N1CCC(N2CC[C@H](Cc3cn(-c4ccc(F)cc4C(=O)N(C)C(C)C)c4cncc(C)c34)C2)CC1 [Compound 156]

The remaining lines, values behind:

Row | SMILES | IC50 [1] [nM] | IC50 (MEIS1 mRNA expression) [nM]
15 | CCC([C@H]1C[C@@H](N2C[C@H]3CN(C(C)=O)C[C@@H]3C2)C1)N1CC[C@@H](Cc2cn(-c3ccc(F)cc3C(=O)N(C)C(C)C)c3cncc(C)c23)C1 (mixture of isomers) [Compound 22] | 0.024 | ~11
16 | CC(=O)N1CCC(CN2CC[C@@H](Cc3cn(-c4ccc(F)cc4S4(=O)=NCCC4)c4cncc(C)c34)C2)CC1 (mixture of isomers) [Compound 214] | – | > 1000
17 | CC(=O)N1CCC(N2CC(Cc3cn(-c4ccc(F)cc4C(=O)N(C)C(C)C)c4cncc(C)c34)C2)C[C@H]1C (single isomer, unassigned) [Compound 292a] | 0.132 | –
18 | CNC(=O)c1cncc(N2CCC(N3CC(Cc4cn(-c5ccc(OC)cc5C(=O)N(C)C(C)C)c5cncc(C)c45)C3)CC2)n1 [Compound 76] | 0.304 | –
19 | CC(=O)N1CC2CC(N3CC(Cc4cn(-c5ccc(F)cc5C(=O)N(C)C(C)C)c5cncc(C)c45)C3)CC2C1 (stereo not shown) [Compound 294b] | 0.077 | –
20 | Cc1cncc2c1c(C[C@@H]1CCN(CC3CCOCC3)C1)cn2-c1ccc(F)cc1C(=O)N1CCC[C@@H]1CO [Compound 361] | 0.149 | –
21 | Cc1cncc2c1c(C[C@H]1CN[C@H](C)C1)cn2-c1ccc(F)cc1C(=O)N(C)C(C)C [Compound 503] | 10.5 | –
22 | Cc1cncc2c1c(C[C@H]1CN[C@@H](C)C1)cn2-c1ccc(F)cc1C(=O)N(C)C(C)C [Compound 505] | 3.11 | –
23 | Cc1cncc2c1c(CC1CCNC1C)cn2-c1ccc(F)cc1C(=O)N(C)C(C)C (stereo not shown) [Compound 507] | 6.6 | –
24 | Cc1cncc2c1c(CC1CCNC1C)cn2-c1ccc(F)cc1C(=O)N(C)C(C)C (stereo not shown) [Compound 508] | 3.68 | –
25 | Cc1cncc2c1c(CC1CCNC1C)cn2-c1ccc(F)cc1C(=O)N(C)C(C)C (stereo not shown) [Compound 509] | 4.53 | –
26 | Cc1cncc2c1c(CC1CCNC1C)cn2-c1ccc(F)cc1C(=O)N(C)C(C)C (stereo not shown) [Compound 510] | 2.95 | –
27 | Cc1cncc2c1c(C[C@@H]1CN[C@@H](C)C1)cn2-c1ccc(F)cc1C(=O)N(C)C(C)C [Compound 522] | 10.6 | –
28 | COC(=O)c1cc(F)ccc1-n1cc(C[C@@H]2CCN(CC3CCN(C(C)=O)CC3)C2)c2c(C)cncc21 [Compound 528] | 0.514 | –
29 | COC(=O)c1cc(F)ccc1-n1cc(C[C@@H]2CCN(CC3CCNC(=O)CC3)C2)c2c(C)cncc21 (stereo partly shown) [Compound 533] | 0.808 | –
30 | COC(=O)c1cc(F)ccc1-n1cc(C[C@@H]2CCN(CC3CCOCC3)C2)c2c(C)cncc21 [Compound 534] | 0.556 | –
